Laboratory results as given in BindingDB's records for doi:10.1074/jbc.M113.533562 (Case Western Reserve University, 2014).

Experiments:
Oxa40 = Oxa40 (Acinetobacter baumannii, UniProt Q8RLA6); experiment: Kinetic Assay; settings: pH 7.2
Procedure: (§1) Steady-state kinetics were performed on an Agilent 8453 diode array spectrophotometer (Palo Alto, CA) in 50 mM sodium phosphate buffer (pH 7.2) supplemented with 20 mM NaHCO3.

Beta-lactamase OXA-1 = Beta-lactamase OXA-1 (Escherichia coli, UniProt P13661); experiment: Kinetic Assay; settings: pH 7.2
Procedure: as §1

Sequence of Beta-lactamase OXA-1 (P13661 whole entry): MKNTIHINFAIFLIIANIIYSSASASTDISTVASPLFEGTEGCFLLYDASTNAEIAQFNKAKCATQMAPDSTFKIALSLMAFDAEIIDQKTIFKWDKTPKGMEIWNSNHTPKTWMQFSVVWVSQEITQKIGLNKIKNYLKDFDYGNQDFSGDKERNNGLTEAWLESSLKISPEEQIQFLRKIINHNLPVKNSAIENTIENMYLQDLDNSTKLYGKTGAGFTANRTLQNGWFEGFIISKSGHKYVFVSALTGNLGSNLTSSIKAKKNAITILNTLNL
Sequence of Oxa40 (Q8RLA6 whole entry): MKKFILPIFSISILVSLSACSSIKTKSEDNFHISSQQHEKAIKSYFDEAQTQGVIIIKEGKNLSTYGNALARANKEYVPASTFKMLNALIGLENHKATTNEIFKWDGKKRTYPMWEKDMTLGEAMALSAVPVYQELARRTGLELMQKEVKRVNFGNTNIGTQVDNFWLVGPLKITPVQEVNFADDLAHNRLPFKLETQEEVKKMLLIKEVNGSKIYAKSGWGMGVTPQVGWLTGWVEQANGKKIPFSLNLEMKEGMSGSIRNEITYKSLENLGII

IC50 (Oxa40)	Ki (Oxa40)	IC50 (Beta-lactamase OXA-1)	Ki (Beta-lactamase OXA-1)	SMILES
150 nM	30 nM	30 nM	50 nM	O=C(O)C1=CS[C@@H]2/C(=C\c3cc4n(n3)CSC4)C(=O)N12 [Penem 1]
160 nM	150 nM	60 nM	380 nM	O=C(O)C1=CS[C@@H]2/C(=C\c3cn4c(n3)COCC4)C(=O)N12 [Penem 3]
